Source: patent publication US12516056B2, “Compounds for inhibition of janus kinase 1” (MANKIND PHARMA LTD., priority 2019, dated 2026)
Where a name gives a salt, the structure may show the parent alone. Read-outs that look alike come from different tables or passages of the source.

Key:
Recombinant JAK2 = biological target: T1, Recombinant JAK2 (Homo sapiens, UniProt O60674); test: JAK biochemical assay (LANCE Ultra TR-FRET), JAK2; settings: recombinant JAK2, TR-FRET; read-out: Biochemical Assay (μM) JAK2
T1 construct: purchased Carna Biosciences
T1 sequence (O60674 whole entry): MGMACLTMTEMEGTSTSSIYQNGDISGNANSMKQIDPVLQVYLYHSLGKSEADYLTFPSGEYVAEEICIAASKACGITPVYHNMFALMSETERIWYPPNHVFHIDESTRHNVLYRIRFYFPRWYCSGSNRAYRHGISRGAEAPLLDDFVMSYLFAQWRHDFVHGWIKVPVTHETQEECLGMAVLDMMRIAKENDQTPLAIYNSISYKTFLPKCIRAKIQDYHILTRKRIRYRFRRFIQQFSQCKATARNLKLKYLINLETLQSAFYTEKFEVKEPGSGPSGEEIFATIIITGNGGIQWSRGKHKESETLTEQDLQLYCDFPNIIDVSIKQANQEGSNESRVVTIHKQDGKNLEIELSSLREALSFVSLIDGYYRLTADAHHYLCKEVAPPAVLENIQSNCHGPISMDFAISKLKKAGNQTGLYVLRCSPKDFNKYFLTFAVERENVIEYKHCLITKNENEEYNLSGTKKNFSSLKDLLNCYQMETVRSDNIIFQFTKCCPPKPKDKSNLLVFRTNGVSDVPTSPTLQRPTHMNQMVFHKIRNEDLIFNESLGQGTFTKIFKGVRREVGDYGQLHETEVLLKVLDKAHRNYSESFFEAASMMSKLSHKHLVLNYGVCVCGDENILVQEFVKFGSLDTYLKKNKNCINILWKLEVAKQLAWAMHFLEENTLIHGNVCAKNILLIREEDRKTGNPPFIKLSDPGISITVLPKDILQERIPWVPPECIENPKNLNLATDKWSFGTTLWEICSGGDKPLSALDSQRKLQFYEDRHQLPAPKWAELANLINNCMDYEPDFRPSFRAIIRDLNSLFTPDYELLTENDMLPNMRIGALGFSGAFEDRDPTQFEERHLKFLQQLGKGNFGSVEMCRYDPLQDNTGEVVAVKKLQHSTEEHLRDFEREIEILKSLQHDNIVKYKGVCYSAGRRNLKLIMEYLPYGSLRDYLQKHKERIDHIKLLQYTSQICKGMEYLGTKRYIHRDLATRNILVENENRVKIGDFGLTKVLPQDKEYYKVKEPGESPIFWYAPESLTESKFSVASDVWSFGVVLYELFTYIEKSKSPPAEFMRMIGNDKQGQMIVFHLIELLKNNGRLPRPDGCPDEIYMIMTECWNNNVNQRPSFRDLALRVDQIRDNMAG
Outline: (§1)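 % inhibition relative to vehicle was derived from TR-FRET signal proportional to ULight-substrate phosphorylation. Reactions used recombinant kinase in HEPES pH 7.5 buffer containing EGTA, MgCl2, DTT and Tween-20.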

Recombinant JAK3 = biological target: T2, Recombinant JAK3 (Homo sapiens, UniProt P52333); test: JAK biochemical assay (LANCE Ultra TR-FRET), JAK3; settings: recombinant JAK3, TR-FRET; read-out: Biochemical Assay (μM) JAK3
T2 construct: purchased Carna Biosciences
T2 sequence (P52333 1-1124): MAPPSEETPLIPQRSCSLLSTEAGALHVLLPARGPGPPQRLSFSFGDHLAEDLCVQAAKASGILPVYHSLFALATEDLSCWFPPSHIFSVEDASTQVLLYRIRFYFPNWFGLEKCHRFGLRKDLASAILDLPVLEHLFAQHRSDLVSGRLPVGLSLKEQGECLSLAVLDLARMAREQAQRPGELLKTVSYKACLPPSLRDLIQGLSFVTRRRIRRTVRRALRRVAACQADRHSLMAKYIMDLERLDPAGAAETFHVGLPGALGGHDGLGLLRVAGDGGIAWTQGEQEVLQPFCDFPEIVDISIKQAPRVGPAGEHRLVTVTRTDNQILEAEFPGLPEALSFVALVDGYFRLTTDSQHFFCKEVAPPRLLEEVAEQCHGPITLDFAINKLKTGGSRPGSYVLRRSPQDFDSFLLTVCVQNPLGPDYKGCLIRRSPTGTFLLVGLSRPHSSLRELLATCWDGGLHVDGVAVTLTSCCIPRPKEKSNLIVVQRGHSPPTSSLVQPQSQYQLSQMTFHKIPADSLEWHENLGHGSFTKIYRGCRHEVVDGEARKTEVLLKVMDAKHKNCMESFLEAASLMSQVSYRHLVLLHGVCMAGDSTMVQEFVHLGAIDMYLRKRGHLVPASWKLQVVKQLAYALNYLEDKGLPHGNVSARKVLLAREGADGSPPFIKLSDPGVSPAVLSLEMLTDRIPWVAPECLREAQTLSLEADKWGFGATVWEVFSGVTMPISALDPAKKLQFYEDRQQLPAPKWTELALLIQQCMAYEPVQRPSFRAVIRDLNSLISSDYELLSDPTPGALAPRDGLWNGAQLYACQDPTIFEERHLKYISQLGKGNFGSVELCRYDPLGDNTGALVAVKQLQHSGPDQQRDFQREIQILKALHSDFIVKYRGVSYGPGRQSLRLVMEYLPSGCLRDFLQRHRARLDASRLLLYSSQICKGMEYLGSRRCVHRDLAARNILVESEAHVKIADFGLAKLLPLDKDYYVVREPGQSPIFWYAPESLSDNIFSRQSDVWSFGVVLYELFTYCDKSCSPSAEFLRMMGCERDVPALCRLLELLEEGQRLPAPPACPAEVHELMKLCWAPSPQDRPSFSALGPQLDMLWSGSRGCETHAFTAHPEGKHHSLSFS
Outline: as §1

[1] = system: STAT5 phosphorylation by GMCSF in TF-1 cells; test: JAK cellular assay: STAT5 phosphorylation by GMCSF in TF-1 cells (HTRF); format: cell-based; settings: TF-1 cells, GMCSF 5 ng/ml, pSTAT5 HTRF, read-out: Cell Based Assay (μM) TF-1/GMCSF/pSTAT5
Experimental: (§2) TF-1 cells were starved overnight in OptiMEM medium with 0.5% charcoal stripped fetal bovine serum, 0.1 mM nonessential amino acids (NEAA), 1 mM sodium pyruvate and without phenol red in CO2 incubator maintained at 37° c. Next day, cells were resuspended in RPMI without phenol red and dispensed into a 96 well plate at a final cell density of 1,20,000 cells per well. Compounds were diluted in DMSO and added to cells and incubated for 30 minutes in CO2 incubator maintained at 37° c. Final DMSO concentration in cell based assay was 0.2%. Human recombinant cytokines, IL-6 (30 ng/ml) and GMCSF (5 ng/ml) were added to the plate containing cells along with compound and incubated for 20 minutes with gentle tapping at every 5 minutes once. Compound mediated effects on STAT3 and STAT5 phosphorylation was measured in the lysates prepared by using CISBIO pSTAT3 and pSTAT5 detection kits by HTRF method. Background signal obtained from cells which were not activated with cytokines, was subtracted from vehicle controls and compound treated wells.

Recombinant TYK2 = biological target: T3, Recombinant TYK2 (Homo sapiens, UniProt P29597); test: JAK biochemical assay (LANCE Ultra TR-FRET), TYK2; settings: recombinant TYK2, TR-FRET; read-out: Biochemical Assay (μM) TYK2
T3 construct: purchased Carna Biosciences
T3 sequence (P29597 whole entry): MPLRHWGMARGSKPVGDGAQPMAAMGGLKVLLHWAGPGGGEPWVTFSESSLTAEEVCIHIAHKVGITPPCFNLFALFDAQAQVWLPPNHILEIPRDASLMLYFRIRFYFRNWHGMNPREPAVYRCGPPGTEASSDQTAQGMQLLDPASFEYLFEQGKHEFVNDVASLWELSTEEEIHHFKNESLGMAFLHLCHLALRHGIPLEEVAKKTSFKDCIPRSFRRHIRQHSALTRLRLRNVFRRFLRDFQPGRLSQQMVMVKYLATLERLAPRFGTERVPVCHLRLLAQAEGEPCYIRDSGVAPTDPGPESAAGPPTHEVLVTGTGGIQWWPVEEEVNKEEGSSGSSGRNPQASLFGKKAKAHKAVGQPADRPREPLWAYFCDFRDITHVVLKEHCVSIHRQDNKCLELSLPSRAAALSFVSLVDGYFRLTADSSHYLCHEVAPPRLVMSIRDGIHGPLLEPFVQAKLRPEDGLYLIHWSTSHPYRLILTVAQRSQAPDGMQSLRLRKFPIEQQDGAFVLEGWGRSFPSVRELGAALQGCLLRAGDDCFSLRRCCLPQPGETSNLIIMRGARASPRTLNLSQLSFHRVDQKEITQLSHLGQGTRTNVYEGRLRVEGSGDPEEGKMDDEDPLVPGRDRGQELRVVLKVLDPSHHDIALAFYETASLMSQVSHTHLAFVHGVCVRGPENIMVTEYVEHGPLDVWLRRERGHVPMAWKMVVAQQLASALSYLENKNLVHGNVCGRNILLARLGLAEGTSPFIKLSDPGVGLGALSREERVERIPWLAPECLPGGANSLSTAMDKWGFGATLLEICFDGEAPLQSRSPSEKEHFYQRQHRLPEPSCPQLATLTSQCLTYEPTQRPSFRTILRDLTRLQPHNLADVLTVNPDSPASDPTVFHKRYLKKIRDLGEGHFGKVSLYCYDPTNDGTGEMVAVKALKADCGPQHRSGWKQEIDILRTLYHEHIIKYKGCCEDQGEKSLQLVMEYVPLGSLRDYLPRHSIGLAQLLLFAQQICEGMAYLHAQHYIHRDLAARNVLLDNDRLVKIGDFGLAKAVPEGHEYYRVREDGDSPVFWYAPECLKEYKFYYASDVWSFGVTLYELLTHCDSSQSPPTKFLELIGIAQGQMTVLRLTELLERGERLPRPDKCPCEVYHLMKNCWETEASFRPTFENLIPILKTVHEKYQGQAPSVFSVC
Outline: as §1

Recombinant JAK1 = biological target: T4, Recombinant JAK1 (Homo sapiens, UniProt P23458); test: JAK biochemical assay (LANCE Ultra TR-FRET), JAK1; settings: recombinant JAK1, TR-FRET; read-out: Biochemical Assay (μM) JAK1
T4 construct: purchased Carna Biosciences
T4 sequence (P23458 whole entry): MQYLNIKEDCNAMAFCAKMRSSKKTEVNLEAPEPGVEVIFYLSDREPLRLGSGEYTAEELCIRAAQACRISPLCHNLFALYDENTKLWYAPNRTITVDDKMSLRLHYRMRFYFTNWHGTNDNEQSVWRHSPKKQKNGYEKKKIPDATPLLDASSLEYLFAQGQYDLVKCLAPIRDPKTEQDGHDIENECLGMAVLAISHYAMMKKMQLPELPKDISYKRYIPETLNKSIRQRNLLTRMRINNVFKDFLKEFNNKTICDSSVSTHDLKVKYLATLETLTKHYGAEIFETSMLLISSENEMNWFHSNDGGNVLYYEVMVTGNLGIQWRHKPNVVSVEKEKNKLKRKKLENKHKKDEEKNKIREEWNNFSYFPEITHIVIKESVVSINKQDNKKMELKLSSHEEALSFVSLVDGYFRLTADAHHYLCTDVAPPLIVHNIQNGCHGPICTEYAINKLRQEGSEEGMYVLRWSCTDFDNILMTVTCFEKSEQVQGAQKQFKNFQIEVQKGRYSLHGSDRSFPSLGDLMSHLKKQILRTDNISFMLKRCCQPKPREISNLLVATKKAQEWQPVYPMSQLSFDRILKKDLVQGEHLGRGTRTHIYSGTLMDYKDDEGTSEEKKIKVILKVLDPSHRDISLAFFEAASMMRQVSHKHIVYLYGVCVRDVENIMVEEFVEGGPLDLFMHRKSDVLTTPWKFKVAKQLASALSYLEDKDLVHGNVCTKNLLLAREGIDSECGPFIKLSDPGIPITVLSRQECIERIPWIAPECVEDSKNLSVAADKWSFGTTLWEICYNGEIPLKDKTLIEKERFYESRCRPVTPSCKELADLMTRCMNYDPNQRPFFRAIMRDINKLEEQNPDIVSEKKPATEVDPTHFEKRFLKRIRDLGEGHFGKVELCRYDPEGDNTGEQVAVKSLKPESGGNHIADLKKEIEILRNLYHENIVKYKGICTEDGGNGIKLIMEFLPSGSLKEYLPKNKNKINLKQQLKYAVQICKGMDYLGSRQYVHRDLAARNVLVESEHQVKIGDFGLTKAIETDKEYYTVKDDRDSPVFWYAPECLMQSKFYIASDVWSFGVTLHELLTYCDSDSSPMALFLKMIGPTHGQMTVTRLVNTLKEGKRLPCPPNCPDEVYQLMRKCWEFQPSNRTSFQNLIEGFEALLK
Outline: as §1

[2] = system: STAT3 phosphorylation by IL-6 in TF-1 cells; test: JAK cellular assay: STAT3 phosphorylation by IL-6 in TF-1 cells (HTRF); format: cell-based; settings: IL-6 30 ng/ml, pSTAT3 HTRF, read-out: Cell Based Assay (μM) TF-1/IL-6/pSTAT3
Experimental: as §2

Row | Structure (SMILES) | IC50 (Recombinant JAK2) | IC50 (Recombinant JAK3) | IC50 ([1]; Homo sapiens) | IC50 (Recombinant TYK2) | IC50 (Recombinant JAK1) | IC50 ([2]; Homo sapiens, TF-1, TF-1 cells) | IC50 [1] | IC50 ([2]; TF-1 cells)
1 | CC(NC(=O)Nc1ccc(-c2ccnc3[nH]c(=O)[nH]c23)cc1)C(F)(F)F (stereo not shown) [Example 1002, 1-(1,1,1-trifluoropropan-2-yl)-3-(4-(2,3-dihydro-2-oxo-1H-imidazo[4,5-b]pyridin-7-yl)phenyl)urea] | < 0.5 µM | < 0.5 µM | > 10 µM | > 0.5 µM | < 0.5 µM | > 10 µM | – | –
2 | CC(CC#N)NC(=O)n1cc(-c2ccnc3[nH]c(=O)[nH]c23)cn1 (stereo not shown) [Example 1046, N-(1-cyanopropan-2-yl)-4-(2,3-dihydro-2-oxo-1H-imidazo[4,5-b]pyridin-7-yl)-1H-pyrazole-1-carboxamide] | < 0.5 µM | < 0.5 µM | > 10 µM | < 0.5 µM | < 0.5 µM | > 10 µM | – | –
3 | CC(CC#N)NC(=O)n1cc(-c2ccnc3[nH]c(=O)[nH]c23)cn1 (stereo not shown) [Example 1053, N-(1-cyanopropan-2-yl)-4-(2,3-dihydro-2-oxo-1H-imidazo[4,5-b]pyridin-7-yl)-1H-pyrazole-1-carboxamide] | < 1 µM | – | – | > 1 µM | < 1 µM | – | > 10 µM | > 10 µM
4 | N#CCCC1CCN(C(=O)n2cc(-c3ccnc4[nH]c(=O)[nH]c34)cn2)C1 (stereo not shown) [Example 1061, 3-(1-(4-(2-oxo-2,3-dihydro-1H-imidazo[4,5-b]pyridin-7-yl)-1H-pyrazole-1-carbonyl)pyrrolidin-3-yl)propanenitrile] | – | > 1 µM | > 10 µM | > 1 µM | > 1 µM | > 10 µM | – | –
5 | CS(=O)(=O)CCC(C#N)NC(=O)n1cc(-c2ccnc3[nH]cnc23)cn1 (stereo not shown) [Example 1072, N-(1-cyano-3-(methylsulfonyl)propyl)-4-(3H-imidazo[4,5-b]pyridin-7-yl)-1H-pyrazole-1-carboxamide] | > 0.5 µM | > 0.5 µM | > 10 µM | – | > 0.5 µM | > 10 µM | – | –
6 | COC(c1ccc(-n2cc(-c3ccnc4[nH]cnc34)cn2)nc1)(C1CCN(C)CC1)C(F)(F)F (stereo not shown) [Example 1244, 7-(1-(5-(2,2,2-trifluoro-1-methoxy-1-(1-methylpiperidin-4-yl)ethyl)pyridin-2-yl)-1H-pyrazol-4-yl)-3H-imidazo[4,5-b]pyridine] | > 0.1 µM | > 0.1 µM | – | > 1 µM | < 0.1 µM | > 1 µM | – | –
7 | N#CCC(=O)N1CC(C(O)(c2ccc(-n3cc(-c4ccnc5[nH]cnc45)cn3)nc2)C(F)(F)F)C1 (stereo not shown) [Example 1245, 3-(3-(1-(6-(4-(3H-imidazo[4,5-b]pyridin-7-yl)-1H-pyrazol-1-yl)pyridin-3-yl)-2,2,2-trifluoro-1-hydroxyethyl)azetidin-1-yl)-3-oxopropanenitrile] | > 0.03 µM | > 0.003 µM | – | > 1 µM | > 0.001 µM | > 1 µM | – | –

The next lines start with the values.

Row | IC50 (Recombinant JAK2) | IC50 (Recombinant JAK3) | IC50 ([1]; Homo sapiens) | IC50 (Recombinant TYK2) | IC50 (Recombinant JAK1) | IC50 ([2]; Homo sapiens, TF-1, TF-1 cells) | IC50 [1] | IC50 ([2]; TF-1 cells) | Structure (SMILES)
8 | 0.048 µM | 0.283 µM | > 10 µM | 0.122 µM | 0.041 µM | > 1 µM | – | – | O=C(NCC(F)(F)F)n1cc(-c2ccnc3[nH]c(=O)[nH]c23)cn1 [Example 1026, N-(2,2,2-trifluoroethyl)-4-(2,3-dihydro-2-oxo-1H-imidazo[4,5-b]pyridin-7-yl)-1H-pyrazole-1-carboxamide]
9 | 0.031 µM | 0.123 µM | > 10 µM | 0.053 µM | 0.03 µM | 4.7 µM | – | – | N#CC(NC(=O)n1cc(-c2ccnc3[nH]c(=O)[nH]c23)cn1)C1CC1 (stereo not shown) [Example 1043, N-(cyano(cyclopropyl)methyl)-4-(2,3-dihydro-2-oxo-1H-imidazo[4,5-b]pyridin-7-yl)-1H-pyrazole-1-carboxamide]
10 | < 0.5 µM | < 0.5 µM | 10 µM | < 0.5 µM | < 0.5 µM | 4.9 µM | – | – | CC(C)[C@@H](C#N)NC(=O)n1cc(-c2ccnc3[nH]c(=O)[nH]c23)cn1 [Example 1047, N-((S)-1-cyano-2-methylpropyl)-4-(2,3-dihydro-2-oxo-1H-imidazo[4,5-b]pyridin-7-yl)-1H-pyrazole-1-carboxamide]
11 | – | – | > 10 µM | – | – | > 1 µM | – | – | FC(F)(F)Cc1ccc(-n2cc(-c3ccnc4[nH]cnc34)cn2)nc1 [Example 1084, 7-(1-(5-(2,2,2-trifluoroethyl)pyridin-2-yl)-1H-pyrazol-4-yl)-3H-imidazo[4,5-b]pyridine]
12 | > 0.5 µM | > 1 µM | > 10 µM | > 1 µM | – | 10 µM | – | – | N#CC(c1ccc(-n2cc(-c3ccnc4[nH]cnc34)cn2)nc1)N1CCOCC1 (stereo not shown) [Example 1112, 2-(6-(4-(3H-imidazo[4,5-b]pyridin-7-yl)-1H-pyrazol-1-yl)pyridin-3-yl)-2-morpholinoacetonitrile]
13 | – | – | > 10 µM | – | – | > 1 µM | – | – | N#CCc1cccc(-n2cc(-c3ccnc4[nH]cnc34)cn2)n1 [Example 1117, 2-(6-(4-(3H-imidazo[4,5-b]pyridin-7-yl)-1H-pyrazol-1-yl)pyridin-2-yl)acetonitrile]
14 | – | < 0.1 µM | > 10 µM | > 1 µM | < 0.1 µM | > 1 µM | – | – | OC(c1ccc(-n2cc(-c3ccnc4[nH]cnc34)cn2)nc1)(C1CCOCC1)C(F)(F)F (stereo not shown) [Example 1134, 1-(6-(4-(3H-imidazo[4,5-b]pyridin-7-yl)-1H-pyrazol-1-yl)pyridin-3-yl)-2,2,2-trifluoro-1-(tetrahydro-2H-pyran-4-yl)ethanol]
15 | – | > 0.1 µM | > 10 µM | > 1 µM | – | > 1 µM | – | – | CN(C)C(=O)CC(c1ccc(-n2cc(-c3ccnc4[nH]cnc34)cn2)nc1)C(F)(F)F (stereo not shown) [Example 1144, 3-(6-(4-(3H-imidazo[4,5-b]pyridin-7-yl)-1H-pyrazol-1-yl)pyridin-3-yl)-4,4,4-trifluoro-N,N-dimethylbutanamide]
16 | – | – | > 1 µM | – | – | > 0.8 µM | – | – | CN1CCN(CC(c2ccc(-n3cc(-c4ccnc5[nH]cnc45)cn3)nc2)C(F)(F)F)CC1 (stereo not shown) [Example 1222, 7-(1-(5-(1,1,1-trifluoro-3-(4-methylpiperazin-1-yl)propan-2-yl)pyridin-2-yl)-1H-pyrazol-4-yl)-3H-imidazo[4,5-b]pyridine]
17 | – | 0.001 µM | > 1 µM | > 0.1 µM | – | > 0.75 µM | – | – | CC(N)CCC(c1ccc(-n2cc(-c3ccnc4[nH]cnc34)cn2)nc1)C(F)(F)F (stereo not shown) [Example 1224, 5-(6-(4-(3H-imidazo[4,5-b]pyridin-7-yl)-1H-pyrazol-1-yl)pyridin-3-yl)-6,6,6-trifluorohexan-2-amine, TFA salt]
